Columns and labels:
mouse ANO1 = test: Whole-cell current recording in mouse ANO1 stable HEK cell line; type: cell-based; settings: 500 nM ionomycin, mANO1 stable HEK cell line
Procedure: A stable cell line (HEK cells) that constitutively over-expresses mANO1 is constructed for high throughput screening analysis. In order to test whether the HEK cell line elicits ANO1 currents, ionomycin was applied. Application of ionomycin evoked a robust inward Cl^− currents in a whole cell. Pipette and bath solutions contained 140 mM NMDG-Cl.
HEK293 cells were transfected with pEGFP-N-1-mANO1 using Lipofectamine (Invitrogen Corp., Carlsbad, Calif.). After selection in 800 μg/ml geneticin (Invitrogen Corp., Carlsbad, Calif.) for 15 days, single colonies were picked with cloning cylinders and tested for activity of ANO1.
To detect active compounds from chemical libraries or other sources of chemicals, a stable cell line, that constitutively expresses mouse ANO1, was constructed in accordance with the method of Reference Example 7. To construct a stable cell line, mouse ANO1 DNA was incorporated to the genomic DNA of human embryonic kidney (HEK) cells.
This confirms that ANO1 is constitutively expressed in the stable cell line.

mANO1 = molecular target: T1, mANO1 (Mus musculus, UniProt Q8BHY3, S527P); test: Two-electrode voltage clamp currents in Xenopus oocytes injected with mANO1 complementary RNA; type: cell-based; design: expressed in transfected cells; host or cells: Xenopus laevis oocytes (cRNA injection); settings: ionomycin 4 μM; mANO1 expressing oocytes
T1 sequence (Q8BHY3 1-960 S527P): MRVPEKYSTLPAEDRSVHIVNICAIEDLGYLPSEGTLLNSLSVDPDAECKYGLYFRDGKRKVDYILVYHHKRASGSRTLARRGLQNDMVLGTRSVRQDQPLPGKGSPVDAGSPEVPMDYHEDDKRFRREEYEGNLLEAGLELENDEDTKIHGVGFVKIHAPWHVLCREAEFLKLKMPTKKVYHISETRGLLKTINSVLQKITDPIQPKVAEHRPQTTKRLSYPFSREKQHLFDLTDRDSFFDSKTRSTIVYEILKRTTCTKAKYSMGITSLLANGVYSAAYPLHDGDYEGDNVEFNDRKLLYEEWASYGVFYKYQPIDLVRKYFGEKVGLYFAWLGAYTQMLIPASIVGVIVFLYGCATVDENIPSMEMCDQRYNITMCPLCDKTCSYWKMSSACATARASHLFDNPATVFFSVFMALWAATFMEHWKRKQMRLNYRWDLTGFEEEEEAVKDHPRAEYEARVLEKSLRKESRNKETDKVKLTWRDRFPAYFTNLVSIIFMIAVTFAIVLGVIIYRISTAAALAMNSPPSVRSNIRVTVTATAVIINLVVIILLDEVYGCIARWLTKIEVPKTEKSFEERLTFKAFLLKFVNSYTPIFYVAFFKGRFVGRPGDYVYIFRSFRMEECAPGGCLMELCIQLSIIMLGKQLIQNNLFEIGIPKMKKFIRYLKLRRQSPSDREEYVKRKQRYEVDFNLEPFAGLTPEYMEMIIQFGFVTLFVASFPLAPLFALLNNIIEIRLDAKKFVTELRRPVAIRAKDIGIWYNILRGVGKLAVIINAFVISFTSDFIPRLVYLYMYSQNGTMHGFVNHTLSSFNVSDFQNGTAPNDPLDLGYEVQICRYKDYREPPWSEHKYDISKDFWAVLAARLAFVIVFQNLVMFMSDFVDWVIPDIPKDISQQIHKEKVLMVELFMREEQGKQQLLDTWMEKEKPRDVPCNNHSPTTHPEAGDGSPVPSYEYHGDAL
Procedure: pSDTF-mANO1 obtained in Reference Example 1 was linearized using BamHI. Complementary RNA was transcribed with SP6 RNA polymerase (mMESSAGE mMACHINE® SP6 Kit, Ambion, Austin, Tex.). After being defolliculated with collagenase (Type IA, Sigma), Xenopus laevis oocytes were injected with 50 ng of the complementary RNAs of mANO1 in 50 nl of diethylpyrocarbonate-treated water. Two to five days after the injection, whole cell currents were recorded using the two-electrode voltage clamp technique. The bath solution contained 96 mM NaCl, 1 mM MgCl2, 5 mM HEPES, 2 mM KCl and 1.8 mM CaCl2 at pH 7.5 and was perfused at 2 ml/min. Experiments were performed at room temperature.
Xenopus oocytes provide a recognized model for endogenous CaCC studies because they express endogenous CaCCs that are required for ‘fertilization depolarization’ (Hartzell, H. C. et al., Mol Pharmacol 51, 683-92 (1997)). Furthermore, the biophysical and pharmacological properties of Xenopus CaCCs are similar to those of mammalian CaCCs (Machaca, K. et al., Calcium-Activated Chloride Channels (ed. Fuller, C. M.) (Academic Press, Amsterdam, 2002)). Accordingly, the present inventors expressed mANO1 in Xenopus oocytes and tested its activation by receptor stimulation using 1 μM LPA (lysophosphatidic acid). CaCCs in Xenopus are known to be activated by LPA (Guo, Z. et al., Proc Natl Acad Sci USA. 93, 14367-72 (1996); and Kim, M. J. et al., Biochem Pharmacol. 59, 241-7 (2000)). […] Moreover, LPA-induced ANO1 currents were outwardly-rectifying, like those of native CaCCs in Xenopus oocytes (Machaca, K. et al., supra) (FIG. 4C). The reversal potential was 37.7±1.05 mV (n=5), which is close to the equilibrium potential of Cl^− in Xenopus oocytes (Weber, W., Biochim Biophys Acta 1421, 213-33 (1999)).
Indeed, LPA (1 μM) applied to oocytes expressing mANO1 induced a large inward current.
Further, pretreatment of 1 μM thapsigargin blocked the IP3-induced current in a mANO1-expressing oocyte (FIGS. 10C and 10D).
LPA-induced ANO1 currents were blocked by Cl^− channel blockers. The Cl^− channel blockers were applied 10˜20 min before the LPA application. […] This blockade of agonist-induced ANO1 currents by DIDS, niflumic acid, or NPPB were also observed in mammalian cells transfected with mANO1.

Structure (SMILES): C[C@H](CCC(=O)O)C[C@H](C)C[C@H](C)C(=O)/C=C(\O)[C@H](C)C[C@H](C)C/C=C/[C@@H](C)[C@@H](O)[C@@H](C)[C@@H](O)C[C@@H]1CC[C@@](C)([C@H]2CC[C@@](C)([C@@H](C)O)O2)O1 [ionomycin]
- inward current evoked by ionomycin (mouse ANO1): robust inward current
- activation of mANO1 by Ca2+ ionophore (mANO1): Activation

Source: patent US20100209934A1, “METHOD OF IDENTIFYING AGENTS WHICH MODULATE THE ACTIVITY OF CALCIUM-ACTIVATED CHLORIDE CHANNEL” (SNU R&DB FOUNDATION, priority 2007, published 2010)
